Data: patent US20040049072A1, “RXR modulators with improved pharmacologic profile” (priority 1999, published 2004)
“Also recorded” adds a separate entry of the source. Read-outs that look alike come from different tables or passages of the source.

What was measured:
[1] = test system: Crl:CD-1 (ICR)BR mice; assay: teratogenicity in pregnant Crl:CD-1 (ICR)BR mice; format: in vivo, mouse; settings: for teratogenicity in fetuses: daily oral gavage, gestation days 6-18, L6 30 or 200 mg/kg-day, LG100268 30 or 100 mg/kg-day
Description: Teratogenicity is commonly evaluated by examination of fetuses obtained by cesarean section from pregnant mice dosed daily with test compound between gestation days 6-18. We have conducted a blinded study using time-mated female Crl:CD-1® (ICR)BR mice to evaluate potential developmental toxicity (teratogenicity) following administration of L6 at either 30 or 200 mg/kg-day by daily oral gavage for the specified […] of gestation. Each test group consisted of 7-8 pregnant females and produced approx. 100 live fetuses per test group. […] The highest dose of L6 tested (200 mg/kg-day) is twice the dose required to produce maximum antidiabetic activity in db/db mice (100 mg/kg-day).

[2] = test system: db/db mouse; assay: db/db mouse study (rodent model of Type II diabetes); settings: for inhibition in vivo at 30 mg/kg: Mus musculus, po, 168 h, read-out: db/db mouse Glu. (D7); for db/db mouse Trigs. (D3): plasma triglycerides as % of control values, day 3, 30 mg/kg/day
[3] = target: T1, RXRα (Homo sapiens, UniProt P19793); assay: RXRα binding (competition with tritiated LGD1069); settings: Table 2; from IC50 by Cheng-Prussof equation, tritiated LGD1069; read-out: Bind RXRα Ki
T1 sequence (P19793 1-462): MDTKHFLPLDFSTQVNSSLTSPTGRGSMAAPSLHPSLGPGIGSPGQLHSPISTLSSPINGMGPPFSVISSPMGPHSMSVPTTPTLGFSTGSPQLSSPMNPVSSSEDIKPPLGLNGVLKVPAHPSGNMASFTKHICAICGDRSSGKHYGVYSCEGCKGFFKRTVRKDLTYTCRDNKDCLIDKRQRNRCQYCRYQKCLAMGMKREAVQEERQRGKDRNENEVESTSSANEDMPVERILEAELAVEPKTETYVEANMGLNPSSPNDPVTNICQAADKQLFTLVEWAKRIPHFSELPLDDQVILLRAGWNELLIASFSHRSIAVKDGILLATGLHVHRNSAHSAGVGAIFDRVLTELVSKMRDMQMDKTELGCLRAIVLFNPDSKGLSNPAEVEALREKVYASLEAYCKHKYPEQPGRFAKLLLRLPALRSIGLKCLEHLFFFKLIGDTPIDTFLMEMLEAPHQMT
Description: Non-specific binding was defined as that binding remaining in the presence of 500 nM of the appropriate unlabelled compound. At the end of the incubation period, bound ligand was separated from free. The amount of bound tritiated retinoid was determined by liquid scintillation counting of an aliquot (700 μL) of the supernatant fluid or the hydroxylapatite pellet.
After correcting for non-specific binding, IC50 values were determined. […] The IC50 value was determined graphically from a log-logit plot of the data. The Ki values were determined by application of the Cheng-Prussof equation to the IC50 values, the labeled ligand concentration and the Kd of the labeled ligand.

[4] = target: T2, (Homo sapiens, UniProt P19793); assay: RXR homodimer co-transfection assay in CV-1 cells; format: cell-based; settings: CV-1
T2 sequence (P19793 1-462): T1 sequence (P19793 1-462)
Source text: In the co-transfection assay, cloned cDNA for one or more IRs (e.g., human RARα, RXRα, or PPARγ), alone or in combination (i.e. for heterodimer assays) under the control of a constitutive promoter (e.g., the SV 40, RSV or CMV promoter) is introduced by transfection (a procedure to introduce exogenous genes into cells) into a background cell substantially devoid of endogenous IRs. These introduced gene(s) direct the recipient cells to make the IR protein(s) of interest. A further gene is also introduced (co-transfected) into the same cells in conjunction with the IR gene(s). This further gene, comprising the cDNA for a reporter protein, such as firefly luciferase (LUC), controlled by an appropriate hormone responsive promoter containing a hormone response element (HRE). This reporter plasmid functions as a reporter for the transcriptional-modulating activity of the target IR(s). Thus, the reporter acts as a surrogate for the products (mRNA then protein) normally expressed by a gene under control of the target receptor(s) and their native hormone(s).
Exposing the transfected cells to an agonist ligand compound increases reporter activity in the transfected cells. This activity can be conveniently measured, e.g., by increasing luciferase production and enzymatic activity, which reflects compound-dependent, IR-mediated increases in reporter transcription. […] Increasing concentrations of an antagonist will decrease the reporter signal (e.g., luciferase production). The co-transfection assay is therefore useful to detect both agonists and antagonists of specific IRs. Furthermore, it determines not only whether a compound interacts with a particular IR, but whether this interaction mimics (agonizes) or blocks (antagonizes) the effects of native or synthetic regulatory molecules on target gene expression, as well as the specificity and strength of this interaction.
The receptor expression plasmid was cotransfected along with a reporter plasmid at 50 ng/well, the internal control plasmid pRS-β-Gal at 50 ng/well and filler DNA, pGEM, at 90 ng/well.
Six hours after transfection, media was removed and the cells were washed with phosphate-buffered saline (PBS). Media containing compounds of the present invention in concentrations ranging from 10^−10 to 10^−5 M were added to the cells. […] Retinoids were dissolved in dimethylsulfoxide for use in the transcriptional activation assays. Two to three replicates were used for each sample. Transfections and subsequent procedures were performed on a Biomek 1000 automated workstation.
After 40 hours, the cells were washed with PBS, lysed with a detergent-based buffer and assayed for LUC and β-Gal activities using a luminometer or spectrophotometer, respectively. For each replicate, the normalized response (NR) was calculated as: […]
The mean and standard error of the mean (SEM) of the NR were calculated. Data were plotted as the response of the compound compared to the reference compounds over the range of the dose-response curve. […] Antagonist activity was determined by testing the amount of LUC expression in the presence of the RXR agonists described above at the EC50 concentration for such known compounds. […] In addition, the efficacy of antagonists was determined as a function (%) of maximal inhibition.

[5] = target: T3, RXRα:RAR heterodimer (Homo sapiens, UniProt P19793); assay: RXR:RAR heterodimer co-transfection assay in CV-1 cells; format: cell-based; settings: CV-1; read-out: RXR:RAR CV-1 (%) Ag.
T3 construct: expressed in transfected cells; host or cells: CV-1 cells
T3 sequence (P19793 1-462): T1 sequence (P19793 1-462)
Description: For determination of agonist activity in the context of the RXR:RAR heterodimer or the RXR:PPARγ heterodimer, media containing compounds of the present invention in concentrations ranging from 10^−10 to 10^−5 M were added to the cells.
Compounds of the present invention were also tested for the ability to synergize with a PPARγ agonist in the context of an RXR heterodimer. […] Efficacy of the compounds of the present invention in the agonist and synergy assays was calculated as the maximum response obtained over the range of the dose response curve relative to the maximum response obtained by the reference agonist. Antagonist efficacy was determined as a function (%) of maximal inhibition.
However, when RAR is occupied, typical RXR agonists activate the heterodimer. […] To examine the effects of the compounds of the present invention on the transcriptional properties of the RXR:RAR heterodimer, a heterodimer cotransfection assay as described above was employed.

[6] = test system: mice transgenic for the human apolipoprotein A-I gene; assay: transgenic mice carrying the human apo A-I gene (HDL cholesterol, triglycerides); format: in vivo, mouse
Source text: Mice transgenic for the human apolipoprotein A-I gene (obtained from Jackson Laboratory) were used to evaluate PPARalpha mediated effects on HDL cholesterol. The mice were handled as described above for db/db mice, except that they were fed Purina 5001.

[7] = rodent models of Type II Diabetes

Ki [3]	Emax ([4]; Table 2, first RXR:RAR head (c4), maximal repression (100%) in presence of 32 nM LGD1069 (RXR:RXR), read-out: RXR:RAR CV-1 (%) Antag.)	Emax ([4]; read-out: RXR:RAR CV-1 (%) Ag.)	Emax [5]	SMILES	Corpora lutea, implantation sites, live or dead fetuses, resorptions, fetal weight or sex, external and cranial visceral morphology ([1]; L6 at 30 or 200 mg/kg-day compared to vehicle controls)	teratogenicity in fetuses [1]	dose required to produce maximum antidiabetic activity in db/db mice ([2]; db/db mice)	insulin sensitizing activity with thyroid axis suppression and triglyceride elevations [2, 7]	inhibition in vivo at 30 mg/kg [2]	db/db mouse Trigs. (D3) [2]	triglycerides [6]	db/db mouse Glu. (D 14) ([2]; plasma glucose, % correction relative to lean values, day 14, 100 mg/kg daily oral gavage)	db/db mouse Trigs. (D 14) ([2]; plasma triglycerides, % correction relative to lean values, day 14, NC = no change)	effect on the thyroid hormone axis [2, 7]	effect on triglycerides [2, 7]	insulin sensitizing activity / effect on glucose [2, 7]	db/db mouse T4 (D 3) ([2]; total T4 as % of obese control values, day 3, NC = no change)
				CCCCOc1c(\C(C)=C/C=C/C(C)=C/C(=O)O)cc(C(C)C)cc1C(C)C [Compound L6]	no effects were observed	no teratogenic effects were observed	100 mg/kg-day	maintain the desirable insulin sensitizing activity and eliminate or reduce both the suppression of the thyroid axis and triglyceride elevations; also recorded: maintain the desirable insulin sensitizing activity and minimize both the suppression of the thyroid axis and triglyceride elevations									
5 nM	80%	3%	2%	CC(/C=C/C1=C(c2cc(C(C)C)cc(C(C)C)c2OCCCF)CCC1)=C\C(=O)O [Compound L14]				maintain the desirable insulin sensitizing activity and minimize both the suppression of the thyroid axis and triglyceride elevations	45%	138%							
				Cc1cc2c(cc1C1(c3ccc(C(=O)O)cn3)CC1)C(C)(C)CCC2(C)C [LG100268, 6-[1-(3,5,5,8,8-pentamethyl-5,6,7,8-tetrahydronaphthalen-2-yl)cyclopropyl]nicotinic acid, reference compound]		Teratogenicity was observed			73%	195%	substantially raise triglycerides	73%	82%	suppress the thyroid hormone axis	raise triglycerides	efficacious insulin sensitizers	43%
